Laboratory results: US20150132328A1 (priority 2011, published 2015)
Like-named read-outs stand apart in the source and are kept apart here.

How the values were obtained:
BMK-16myc cells tumor = details: for Metastases (animals with detected metastases/total number of animals): Tumor + IMMP
Description: We used BMK-16myc cells which are baby mouse kidney cells immortalized with genes of 16 protein of the human papilloma virus (HPV) and the myc gene, which grow in mouse, are highly invasive and produce metastases rapidly. One million cells were implanted subcutaneously in the back of each mouse. […] Subsequently, the animals were sacrificed and the tumors under the back skin as well as thymus, spleen, liver and kidney were collected for histopathological examination.

THP-1 cells = tested on: THP-1 cells
Description: We proceeded to perform some related to the proliferative stimulation of the peptide in presence of other divalent cations such as magnesium, copper, and manganese.

Substance: Peptide LEDGPKFL + Zinc [IMMP]
- Metastases (animals with detected metastases/total number of animals) (BMK-16myc cells tumor; Kidney): 0/5
- Metastases (animals with detected metastases/total number of animals) (BMK-16myc cells tumor; Liver): 3/5
- Metastases (animals with detected metastases/total number of animals) (BMK-16myc cells tumor; Spleen, 200 ng Kg i.p., 10 doses): 0/5
- Metastases (animals with detected metastases/total number of animals) (BMK-16myc cells tumor; Thymus): 0/5
- Animals in which development of metastasis was reduced (BMK-16myc cells tumor; mouse, in vivo): 40%
- Tumor size vs untreated group (BMK-16myc cells tumor; tendency to smaller tumors): not statistically significant
- Animals with metastases in liver (BMK-16myc cells tumor; tumor + IMMP (100% untreated)): 60%
- Concentration at which plateau / maximum response of stimulation is reached (THP-1 cells): 10-10 M
- Increase of potency by adding the ion (times) (THP-1 cells): ~500 times
- Increase of the potency of the peptide by zinc (times) (THP-1 cells): more than 200 times
- EC50 (THP-1 cells; read-out: Effective concentration 50): 0.01 nM
